The source of these data is patent US20190330290A1, “PHARMACEUTICAL ASSOCIATION OF GROWTH FACTOR RECEPTOR AGONIST AND ADHESION PROTEIN INHIBITOR FOR CONVERTING A NEOPLASTIC CELL INTO A NON-NEOPLASTIC CELL AND USES THEREOF” (HISTIDE AG, priority 2015, published 2019).

Where no end group is shown, it is not given here.

For assay [1], the system named is p53. Description: p53 protein expression level, immunofluorescence staining quantified with ImageJ. The class given is cell-based, human. The conditions noted are these: MG63 cells; alginate matrix with cyclic GFR-binding peptide + SiRNA Integrin alpha 3 + SiRNA Integrin beta 1; 48 h; 400 ng/mL GFR-binding compound. As to the method: (§1) The cells were first fixed for 20 min with 4% paraformaldehyde/PBS at 4° C. After fixation, the cells were permeabilized in PBS containing 1% Triton X-100 for 15 min. Protein immunofluorescent visualization was performed by first treating the cells with 1% (v/v) specific monoclonal antibodies for 1 hour at 37° C. Then the samples were incubated with Alexa fluor® 568 or 647 (F(ab′)2 fragment of IgG(H+L)) during 30 min at room temperature. The cell nuclei were counterstained in 20 ng/mL DAPI for 10 min at room temperature.
(§2) For this type of quantification the freeware image analysis ImageJ® software was used. The raw image was first converted to an 8-bit file, and then the unsharp mask feature was used (settings 1:0.2) to remove the image background (rolling ball radius 10). After smoothing, the resulting image, which appears similar to the original photomicrograph but with minimal background, was then converted to a binary image by setting a threshold. Threshold values were determined empirically by selecting a setting, which gave the most accurate binary image for a subset of randomly selected photomicrographs. The cell area was determined by manual delineation on raw fluorescent images. Total contact area and mean contact area per cell were calculated by “analyse particules” in ImageJ®. A minimum of 50 cells per condition were analyzed.
(§3) Neoplastic cells (in this example osteosarcoma cells) were cultured in the presence of pharmaceutical associations of the invention. A rapid (24 hours) decrease of the tumor markers was observed (FIG. 5). The adhesion checkpoint then activates the tumor suppressor proteins p53 and pRB.
(§4) The alginate used in these experiments was the Ultra Pure Sodium alginate powder PRONOVA UP MVG from Novamatrix (FMC Biopolymers, cat. no. 4200106). To a 1% MillQ water (1 g per 100 mL) alginate solution were added the cyclic GFR-binding peptide and the SiRNA molecules. The resulting mixture was then added to the cell cultures for 48 h.

Assay [2] concerns pRB. In words: pRB phosphorylation level, immunofluorescence staining quantified with ImageJ. The class given is cell-based, human. As to the method:
as §1, §2, §3, §4

[3] abbreviates: MG63 cells, alginate matrix with cyclic GFR-binding peptide + SiRNA Integrin alpha 3 + SiRNA Integrin beta 1, 48 h, 400 ng/mL GFR-binding compound.
[4] abbreviates: human osteosarcoma cells, MG63, pharmaceutical association containing the GFR-binding compound (Table 6).

Turning to “AAAAAAAAADAANNVVGIPEPSSVSQELSATSMLYYDAANNVV (also: cyclic) [SEQ ID NO: 4730]”, in assay [1], the “P53 (%)” value is recorded as 37%. Also, the “pRB (%)” value in assay [2] (setting [3]) amounted to 10%.
With “AAAAAAAAADAANNVVKIPKASSSRVRLSSLSTLFFDAANNVV (also: cyclic) [SEQ ID NO: 4727]”, the “P53 (%)” value in assay [1] stood at 32%. Also, in assay [2] (setting [3]), the “pRB (%)” value is recorded as 11%.
Take “AAAAAAAAADAANNVVKIPKASSTQVRLRSVKTAKVDAANNVV (also: cyclic) [SEQ ID NO: 4740]”: in assay [1], the “P53 (%)” value is reported as 52%. Besides, the “pRB (%)” value in assay [2] (setting [3]) is on record as 15%.
Regarding “AAAAAAAAADENEKVVAASKASSSRVELRSVKIAKVDDSSNVI (also: cyclic) [SEQ ID NO: 4723]”, in assay [1], the “P53 (%)” value amounted to 50%. Besides, the “pRB (%)” value in assay [2] (setting [3]) was found to be 8%.
Take “AAAAAAAAADENEKVVAASKASSVPEKMRPVQTRKIDDSSNVI (also: cyclic) [SEQ ID NO: 4741]”: the “P53 (%)” value in assay [1] is on record as 49%. Besides, the “pRB (%)” value in assay [2] (setting [3]) is on record as 15%.
For “AAAAAAAAADENEKVVAASKASSVPQEEEPLPMVYYDAANNVV (also: cyclic) [SEQ ID NO: 4721]”, in that order: 39% and 12%.
For “AAAAAAAAADENEKVVKIPKASSVPTKMKPLSVLYVDDSSNVI (also: cyclic (mode not given here)) [SEQ ID NO: 4734]”, in that order: 50% and 12%.
For “AAAAAAAAADENEKVVRVPSTSSVPAEESNITVQIMDDSSNVI (also: cyclic (mode not given here)) [SEQ ID NO: 4738]”, in that order: 55% and 16%.
On to “ASASPSSVSQDLSSLSILFF (Non-cyclic GFR-binding peptide) [SEQ ID NO: 58]”, for which, in assay [2] (setting [4]), the “pRB (%)” value is given as 15%.
With “GGGGGGGGGDDSSNVIAASKASSTPTDLNAISTLYFDDSSNVI (also: cyclic (mode not given here)) [SEQ ID NO: 4728]”, in assay [1], the “P53 (%)” value is reported as 33%. The “pRB (%)” value in assay [2] (setting [3]) was 15%.
“GGGGGGGGGDDSSNVIGIPEPSSAPTRLEPISMLYLDENEKVV (also: cyclic (mode not given here)) [SEQ ID NO: 4731]”: the “P53 (%)” value in assay [1] stood at 40%. In addition, the “pRB (%)” value in assay [2] (setting [3]) amounted to 8%.
Take “GGGGGGGGGDDSSNVIKIPKASSVPTGGSNITVQIMDDSSNVI (also: cyclic (mode not given here)) [SEQ ID NO: 4722]”: the “P53 (%)” value in assay [1] is recorded as 51%. Further, in assay [2] (setting [3]), the “pRB (%)” value worked out at 17%.
For “GGGGGGGGGDDSSNVIRVPSTSSAPTKMNAISMLYFDENEKVV (also: cyclic (mode not given here)) [SEQ ID NO: 4719]”, in that order: 44% and 15%.
With “GGGGGGGGGDDSSNVIRVPSTSSVPTGQSAISTLYLDDSSNVI (also: cyclic (mode not given here)) [SEQ ID NO: 4718]”, the “P53 (%)” value in assay [1] is given as 40%. In addition, the “pRB (%)” value in assay [2] (setting [3]) is 10%.
For “GGGGGGGGGDDSSNVISTPPTSSSRVQLSAISMLYLDDSSNVI (also: cyclic (mode not given here)) [SEQ ID NO: 4725]”, in that order: 29% and 6%.
For “GGGGGGGGGDDSSNVISTPPTSSVSQKMKPLSILYVDDSSNVI (also: cyclic (mode not given here)) [SEQ ID NO: 4735]”, in that order: 51% and 8%.
With “GGGGGGGGGDENEKVVGIPEPSSAPVDLKPLSTLYVDENEKVV (also: cyclic (mode not given here)) [SEQ ID NO: 4720]”, the “P53 (%)” value in assay [1] is 38%. In assay [2] (setting [3]), the “pRB (%)” value came to 9%.
Consider “GGGGGGGGGDENEKVVKIPKASSTQVRLRPVQIRKIDAANNVV (also: cyclic (mode not given here)) [SEQ ID NO: 4724]”, for which, in assay [1], the “P53 (%)” value was 47%. Also, the “pRB (%)” value in assay [2] (setting [3]) was determined as 7%.
For “GGGGGGGGGDENEKVVKIPKASSVSQQLEPISTLYLDENEKVV (also: cyclic (mode not given here)) [SEQ ID NO: 4732]”, in that order: 42% and 9%.
As for “GGGGGGGGGDENEKVVNDEGLESVPEDLSSLSVLFFDENEKVV (also: cyclic (mode not given here)) [SEQ ID NO: 4717]”, the “P53 (%)” value in assay [1] amounted to 42%. In addition, the “pRB (%)” value in assay [2] (setting [3]) stood at 12%.
For “GGGGGGGGGDENEKVVRVPSTSSTQVDLNAISVLYFDENEKVV (also: cyclic (mode not given here)) [SEQ ID NO: 4729]”, in that order: 38% and 13%.
For “GGGGGGGGGDENEKVVRVPSTSSTQVKMSAISMLYLDENEKVV (also: cyclic (mode not given here)) [SEQ ID NO: 4726]”, in that order: 32% and 10%.
For “GGGGGGGGGDENEKVVSTPPTSSVPTEVSPINTLYFDENEKVV (also: cyclic (mode not given here)) [SEQ ID NO: 4733]”, in that order: 38% and 17%.
In the case of “GGGGGGGGGFDNDENVVAASKASSVPQRLRSVKVAKVFDNDENVV (also: cyclic (mode not given here)) [SEQ ID NO: 4739]”, the “P53 (%)” value in assay [1] is listed as 51%. For the same sequence, the “pRB (%)” value in assay [2] (setting [3]) is listed as 14%.
For “GGGGGGGGGFDNDENVVGIPEPSSAPVDMRPVQIRKIFDNDENVV (also: cyclic (mode not given here)) [SEQ ID NO: 4742]”, in that order: 46% and 14%.
For “GGGGGGGGGFDNDENVVRVPSTSSVPEKMEPLTMLYYFDNDENVV (also: cyclic (mode not given here)) [SEQ ID NO: 4736]”, in that order: 47% and 9%.
In the case of “GGGGGGGGGFDNDENVVSTPPTSSTPTKMSNITTQIMFDNDENVV (also: cyclic (mode not given here)) [SEQ ID NO: 4737]”, in assay [1], the “P53 (%)” value is 53%. Also, the “pRB (%)” value in assay [2] (setting [3]) was determined as 18%.
Regarding “NDEGLESVPTEERSVKVAKV (Non-cyclic GFR-binding peptide) [SEQ ID NO: 63]”, the “pRB (%)” value in assay [2] (setting [4]) was determined as 22%.
With “NDEGLESVPTEESAISMLYL (Non-cyclic GFR-binding peptide) [SEQ ID NO: 56]”, in assay [2] (setting [4]), the “pRB (%)” value stood at 18%.
On the same count and under the same terms, for “SIPKASSTPTELSPINMLYF (Non-cyclic GFR-binding peptide) [SEQ ID NO: 54]” the value was 23%; for “SSVKSQPSRVHHKPLSMLYV (Non-cyclic GFR-binding peptide) [SEQ ID NO: 62]”, 18%.
Still for that read-out and setting: for “SSVKSQPSRVHHSPISILFI (Non-cyclic GFR-binding peptide) [SEQ ID NO: 57]” the value was 17%; for “VVPKPSSAPTQLEPISILYL (Non-cyclic GFR-binding peptide) [SEQ ID NO: 59]”, 21%.
